Experiment [1] has as its system Human alphaherpesvirus 1. The experiment is described as follows: Antiviral activity against acyclovir and foscarnet-resistant HSV-1 L2 infected in African green monkey Vero E6 cells assessed as inhibition of viral reproduction measured after 48 hrs post infection by gentian violet staining based plaque reduction assay. The class given is functional. As to conditions: Vero C1008.

Experiment [2] deals with Human alphaherpesvirus 1. Nature of the experiment: Antiviral activity against acyclovir and cidofovir-resistant HSV-1 L2 infected in African green monkey Vero E6 cells assessed as viral reproduction at 415 uM measured after 48 hrs post infection by gentian violet staining based plaque reduction assay (reference value: 6.52 +/- 0.11 log10PFU/ml). The class given is functional, Vero C1008.

For experiment [3], the system named is Human alphaherpesvirus 1. Nature of the experiment: Antiviral activity against acyclovir and cidofovir-resistant HSV-1 L2 infected in African green monkey Vero E6 cells assessed as viral reproduction at 52 uM measured after 48 hrs post infection by gentian violet staining based plaque reduction assay (reference value: 6.52 +/- 0.11 log10PFU/ml). The class given is functional, Vero C1008.

The nature of experiment [4]: Selectivity index, ratio of MCC for African green monkey Vero E6 cells to IC50 for HSV-1 F+ infected in African green monkey Vero E6 cells. More on the design: species or system Vero C1008.
For experiment [5], the system named is Human alphaherpesvirus 1. The experiment is described as follows: Antiviral activity against HSV-1 L2 infected in African green monkey Vero E6 cells assessed as viral reproduction at 415 uM measured after 48 hrs post infection by gentian violet staining based plaque reduction assay (reference value: 6.91 +/- 0.05 log10PFU/ml). It counts as functional, Vero C1008.

Experiment [6] deals with Human alphaherpesvirus 1. Nature of the experiment: Antiviral activity against acyclovir-resistant HSV-1 L2 infected in African green monkey Vero E6 cells assessed as reduction in virus-induced cytopathic effect. The class given is functional. As to conditions: Human alphaherpesvirus 1, L2, Vero C1008.
The subject of experiment [7] is Human alphaherpesvirus 1. Nature of the experiment: Antiviral activity against HSV1 L2 infected in African green monkey Vero E6 cells assessed as reduction in virus-induced cytopathic effect. The note with it: Human alphaherpesvirus 1, L2, Vero C1008. The class given is functional.
Experiment [8] can be described thus: Selectivity index, ratio of MCC for African green monkey Vero E6 cells to IC50 for HSV-1 L2 infected in African green monkey Vero E6 cells. More on the design: species or system Vero C1008.
For experiment [9], the system named is Human alphaherpesvirus 1. Nature of the experiment: Antiviral activity against HSV-1 L2 infected in African green monkey Vero E6 cells assessed as viral reproduction at 52 uM measured after 48 hrs post infection by gentian violet staining based plaque reduction assay (reference value: 6.91 +/- 0.05 log10PFU/ml). The class given is functional, Vero C1008.
For experiment [10], the system named is Human alphaherpesvirus 1. Nature of the experiment: Antiviral activity against foscarnet-resistant HSV-1 F+ infected in African green monkey Vero E6 cells assessed as reduction in virus-induced cytopathic effect. The class given is functional. The note with it: Human alphaherpesvirus 1, F+, Vero C1008.
Experiment [11] relates to Human alphaherpesvirus 1. The experiment is described as follows: Antiviral activity against acyclovir and foscarnet-resistant HSV-1 L2 infected in African green monkey Vero E6 cells assessed as viral reproduction at 207 uM measured after 48 hrs post infection by gentian violet staining based plaque reduction assay (reference value: 5.92 +/- 0.11 log10PFU/ml). It counts as functional, Vero C1008.

For experiment [12], the system named is Human alphaherpesvirus 1. The experiment is described as follows: Antiviral activity against foscarnet-resistant HSV-1 F+ infected in African green monkey Vero E6 cells assessed as viral reproduction at 207 uM measured after 48 hrs post infection by gentian violet staining based plaque reduction assay (reference value: 6.6 +/- 0.1 log10PFU/ml). The class given is functional, Vero C1008.

In experiment [13] the test system is Human alphaherpesvirus 1. Nature of the experiment: Antiviral activity against foscarnet-resistant HSV-1 F+ infected in African green monkey Vero E6 cells assessed as viral reproduction at 52 uM measured after 48 hrs post infection by gentian violet staining based plaque reduction assay (reference value: 6.6 +/- 0.1 log10PFU/ml). It counts as functional, Vero C1008.

In the case of `Nc1nc2cc(F)c(F)cc2n1[C@@H]1O[C@H](CO)[C@@H](O)[C@H]1O`, the inhibition result in the experiment with Human alphaherpesvirus 1 [1] is “Dose-dependent effect”. For the same compound, the Activity with Human alphaherpesvirus 1 [2] is given as 4.61 log10PFU/ml; with Human alphaherpesvirus 1 [3], 5.71 log10PFU/ml; in the experiment on Human alphaherpesvirus 1 [5] it was 4.38 log10PFU/ml; with Human alphaherpesvirus 1 [9], 6.11 log10PFU/ml; with Human alphaherpesvirus 1 [11], 4.47 log10PFU/ml; with Human alphaherpesvirus 1 [12] it was 4.87 log10PFU/ml. In addition, the Activity with Human alphaherpesvirus 1 [13] is 5.9 log10PFU/ml. Also, the results for the “Selectivity Index” value in [4] and in [8] were over 16 and over 32, respectively. Besides, the figures for the IC50 in the experiment on Human alphaherpesvirus 1 [6], in the experiment on Human alphaherpesvirus 1 [7] and in the experiment with Human alphaherpesvirus 1 [10] were 104 µM, 104 µM and 208 µM, respectively. Also, the IC95 with Human alphaherpesvirus 1 [6], with Human alphaherpesvirus 1 [7] and in the experiment with Human alphaherpesvirus 1 [10] was 830 µM throughout.
